Earlier results as cited in patent US20260007782A1, “PREPARATION METHOD FOR LIQUID COMPOSITION COMPRISING COMPOUND I AND USE IN MYOCARDIAL PERFUSION PET IMAGING” (SINOTAU PHARMACEUTICAL GROUP, priority 2022, published 2026).

Conditions: animals

## CC(C)(C)n1ncc(OCc2cccc(Cn3cc(COCCOCC[18F])nn3)c2)c(Cl)c1=O [Compound I, 2-tert-butyl-4-chloro-5-((3-((4-((2-(2-fluoro[^18F]ethoxy)ethoxy)methyl)-1H-1,2,3-triazol-1-yl)methyl)benzyl)oxy)pyridazin-3(2H)-one]
15 minutes post-injection
  cardiac uptake: high
  liver uptake: low
Maintained after 60 minutes
  heart-to-liver ratio: favorable
